12 compounds from patent publication US11541055B2, “Inhibitors of human immunodeficiency virus replication” (ViiV Healthcare UK (No. 5) LIMITED, priority 2018, dated 2023) can be followed below.

Structures are written as SMILES. pEC50: −log10 of the molar value.

The pEC50 is the negative decadic logarithm of the EC50, by convention in mol/L. What is called CC50 is the concentration at which the toxic effect on the cells reaches its halfway point. A higher CC50 goes with lower toxicity to the cells.

The subject of series [1] is recombinant NL4-3 virus (Renilla luciferase) in MT-2 cells. Put plainly: HIV cell culture assay (antiviral activity, luciferase readout). The settings on record: Renilla, NL43. Format: cell-based. In short, it runs like this: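 Antiviral EC50 was derived via the median effect equation from luciferase signal. The signal came from MT-2 cultures infected for 4–5 days with a nef-deleted, Renilla luciferase-expressing NL4-3 reporter virus (made in 293T cells) in the presence of compound dilutions.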

A short description of series [2]: Compound cytotoxicity, XTT-based colorimetric assay. In kind it is cell-based. The settings on record: human; uninfected MT2 cells, day 4, XTT. The method in brief: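 Run under the antiviral-assay protocol but without virus. Viability was read on day 4 and CC50 values were derived from the readout.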
(Tetrazolium dyes change colour on reduction, which living cells bring about.)

Consider `Cc1cc(-c2ccc3c(=O)n(-c4ccc(Cl)c5c(NS(C)(=O)=O)nn(C)c45)c([C@H](Cc4cc(F)cc(F)c4)NC(=O)Cn4nc(C(F)F)c5c4C(F)(F)[C@@H]4C[C@H]54)nc3c2)nc(C)n1` (atropisomer, axis not shown; (P)) [Example 44, N—((S)-1-((3P)-3-(4-chloro-1-methyl-3-(methylsulfonamido)-1H-indazol-7-yl)-7-(2,6-dimethylpyrimidin-4-yl)-4-oxo-3,4-dihydroquinazolin-2-yl)-2-(3,5-difluorophenyl)ethyl)-2-((3bS,4aR)-3-(difluoromethyl)-5,5-difluoro-3b,4,4a,5-tetrahydro-1H-cyclopropa[3,4]cyclopenta[1,2-c]pyrazol-1-yl)acetamide], for which the negative-log EC50 (pEC50) in series [1] is 10.40. Moreover, the CC50 at 4 days in series [2] was greater than 500 nM.
For `COc1ccc(-c2ccc3c(=O)n(-c4ccc(Cl)c5c(NS(C)(=O)=O)nn(C)c45)c([C@H](Cc4cc(F)cc(F)c4)NC(=O)Cn4nc(C(F)F)c5c4C(F)(F)[C@@H]4C[C@H]54)nc3c2)nc1` (atropisomer, axis not shown; (P)) [Example 45, N—((S)-1-((3P)-3-(4-chloro-1-methyl-3-(methylsulfonamido)-1H-indazol-7-yl)-7-(5-methoxypyridin-2-yl)-4-oxo-3,4-dihydroquinazolin-2-yl)-2-(3,5-difluorophenyl)ethyl)-2-((3bS,4aR)-3-(difluoromethyl)-5,5-difluoro-3b,4,4a,5-tetrahydro-1H-cyclopropa[3,4]cyclopenta[1,2-c]pyrazol-1-yl)acetamide], the pEC50 in series [1] is 10.00. In series [2], this compound registered a CC50 at 4 days greater than 500 nM.
Consider `CC(C)c1cccc(-c2ccc3c(=O)n(-c4ccc(Cl)c5c(NS(C)(=O)=O)nn(C)c45)c([C@H](Cc4cc(F)cc(F)c4)NC(=O)Cn4nc(C(F)F)c5c4C(F)(F)[C@@H]4C[C@H]54)nc3c2)n1` (atropisomer, axis not shown; (P)) [Example 46, N—((S)-1-((3P)-3-(4-chloro-1-methyl-3-(methylsulfonamido)-1H-indazol-7-yl)-7-(6-isopropylpyridin-2-yl)-4-oxo-3,4-dihydroquinazolin-2-yl)-2-(3,5-difluorophenyl)ethyl)-2-((3bS,4aR)-3-(difluoromethyl)-5,5-difluoro-3b,4,4a,5-tetrahydro-1H-cyclopropa[3,4]cyclopenta[1,2-c]pyrazol-1-yl)acetamide], for which, in series [1], the negative-log EC50 (pEC50) was 9.64. The compound further came in with a cytotoxic concentration (CC50) at 4 days in series [2] greater than 500 nM.
Regarding `Cn1nc(NS(C)(=O)=O)c2c(Cl)ccc(-n3c([C@H](Cc4cc(F)cc(F)c4)NC(=O)Cn4nc(C(F)F)c5c4C(F)(F)[C@@H]4C[C@H]54)nc4cc(-c5nccc(C(C)(C)C)n5)ccc4c3=O)c21` (atropisomer, axis not shown; (P)) [Example 47, N—((S)-1-(7-(4-(tert-butyl)pyrimidin-2-yl)-(3P)-3-(4-chloro-1-methyl-3-(methylsulfonamido)-1H-indazol-7-yl)-4-oxo-3,4-dihydroquinazolin-2-yl)-2-(3,5-difluorophenyl)ethyl)-2-((3bS,4aR)-3-(difluoromethyl)-5,5-difluoro-3b,4,4a,5-tetrahydro-1H-cyclopropa[3,4]cyclopenta[1,2-c]pyrazol-1-yl)acetamide], in series [1], the negative-log EC50 (pEC50) was 9.72. The CC50 at 4 days in series [2] is greater than 500 nM.
As to `Cc1cc(C(F)(F)F)cc(-c2ccc3c(=O)n(-c4ccc(Cl)c5c(NS(C)(=O)=O)nn(C)c45)c([C@H](Cc4cc(F)cc(F)c4)NC(=O)Cn4nc(C(F)F)c5c4C(F)(F)[C@@H]4C[C@H]54)nc3c2)n1` (atropisomer, axis not shown; (P)) [Example 48, N—((S)-1-((3P)-3-(4-chloro-1-methyl-3-(methylsulfonamido)-1H-indazol-7-yl)-7-(6-methyl-4-(trifluoromethyl)pyridin-2-yl)-4-oxo-3,4-dihydroquinazolin-2-yl)-2-(3,5-difluorophenyl)ethyl)-2-((3bS,4aR)-3-(difluoromethyl)-5,5-difluoro-3b,4,4a,5-tetrahydro-1H-cyclopropa[3,4]cyclopenta[1,2-c]pyrazol-1-yl)acetamide], in series [1], the pEC50 was 9.30. Moreover, in series [2], the CC50 at 4 days is greater than 500 nM.
`Cn1nc(NS(C)(=O)=O)c2c(Cl)ccc(-n3c([C@H](Cc4cc(F)cc(F)c4)NC(=O)Cn4nc(C(F)F)c5c4C(F)(F)[C@@H]4C[C@H]54)nc4cc(-c5cccnn5)ccc4c3=O)c21` (atropisomer, axis not shown; (P)) [Example 49, N—((S)-1-((3P)-3-(4-chloro-1-methyl-3-(methylsulfonamido)-1H-indazol-7-yl)-4-oxo-7-(pyridazin-3-yl)-3,4-dihydroquinazolin-2-yl)-2-(3,5-difluorophenyl)ethyl)-2-((3bS,4aR)-3-(difluoromethyl)-5,5-difluoro-3b,4,4a,5-tetrahydro-1H-cyclopropa[3,4]cyclopenta[1,2-c]pyrazol-1-yl)acetamide]: the negative logarithm of the EC50 (pEC50) in series [1] was 10.15. The compound also gave a CC50 at 4 days in series [2] greater than 500 nM.
For the compound `Cc1ccc(-c2ccc3c(=O)n(-c4ccc(Cl)c5c(NS(C)(=O)=O)nn(C)c45)c([C@H](Cc4cc(F)cc(F)c4)NC(=O)Cn4nc(C(F)F)c5c4C(F)(F)[C@@H]4C[C@H]54)nc3c2)nn1` (atropisomer, axis not shown; (P)) [Example 50, N—((S)-1-((3P)-3-(4-chloro-1-methyl-3-(methylsulfonamido)-1H-indazol-7-yl)-7-(6-methylpyridazin-3-yl)-4-oxo-3,4-dihydroquinazolin-2-yl)-2-(3,5-difluorophenyl)ethyl)-2-((3bS,4aR)-3-(difluoromethyl)-5,5-difluoro-3b,4,4a,5-tetrahydro-1H-cyclopropa[3,4]cyclopenta[1,2-c]pyrazol-1-yl)acetamide], the negative-log EC50 (pEC50) in series [1] was 10.33. In series [2], this compound came in with a CC50 at 4 days greater than 500 nM.
Consider `Cc1ccnnc1-c1ccc2c(=O)n(-c3ccc(Cl)c4c(NS(C)(=O)=O)nn(C)c34)c([C@H](Cc3cc(F)cc(F)c3)NC(=O)Cn3nc(C(F)F)c4c3C(F)(F)[C@@H]3C[C@H]43)nc2c1` (atropisomer, axis not shown; (P)) [Example 51, N—((S)-1-((3P)-3-(4-chloro-1-methyl-3-(methylsulfonamido)-1H-indazol-7-yl)-7-(4-methylpyridazin-3-yl)-4-oxo-3,4-dihydroquinazolin-2-yl)-2-(3,5-difluorophenyl)ethyl)-2-((3bS,4aR)-3-(difluoromethyl)-5,5-difluoro-3b,4,4a,5-tetrahydro-1H-cyclopropa[3,4]cyclopenta[1,2-c]pyrazol-1-yl)acetamide], for which, in series [1], the pEC50 was 9.85. In addition, the 50% cytotoxic concentration (CC50) at 4 days in series [2] is greater than 500 nM.
The corresponding values for `Cc1cc(C)c(C(F)(F)F)c(-c2ccc3c(=O)n(-c4ccc(Cl)c5c(NS(C)(=O)=O)nn(C)c45)c([C@H](Cc4cc(F)cc(F)c4)NC(=O)Cn4nc(C(F)F)c5c4C(F)(F)[C@@H]4C[C@H]54)nc3c2)n1` (atropisomer, axis not shown; (P)) [Example 52, N—((S)-1-((3P)-3-(4-chloro-1-methyl-3-(methylsulfonamido)-1H-indazol-7-yl)-7-(4,6-dimethyl-3-(trifluoromethyl)pyridin-2-yl)-4-oxo-3,4-dihydroquinazolin-2-yl)-2-(3,5-difluorophenyl)ethyl)-2-((3bS,4aR)-3-(difluoromethyl)-5,5-difluoro-3b,4,4a,5-tetrahydro-1H-cyclopropa[3,4]cyclopenta[1,2-c]pyrazol-1-yl)acetamide] are 9.32 and greater than 500 nM.
As to `COc1cc(C(F)(F)F)nc(-c2ccc3c(=O)n(-c4ccc(Cl)c5c(NS(C)(=O)=O)nn(C)c45)c([C@H](Cc4cc(F)cc(F)c4)NC(=O)Cn4nc(C(F)F)c5c4C(F)(F)[C@@H]4C[C@H]54)nc3c2)n1` (atropisomer, axis not shown; (P)) [Example 54, N—((S)-1-((3P)-3-(4-chloro-1-methyl-3-(methylsulfonamido)-1H-indazol-7-yl)-7-(4-methoxy-6-(trifluoromethyl)pyrimidin-2-yl)-4-oxo-3,4-dihydroquinazolin-2-yl)-2-(3,5-difluorophenyl)ethyl)-2-((3bS,4aR)-3-(difluoromethyl)-5,5-difluoro-3b,4,4a,5-tetrahydro-1H-cyclopropa[3,4]cyclopenta[1,2-c]pyrazol-1-yl)acetamide], in series [1], the negative logarithm of the EC50 (pEC50) was 9.51. This compound also registered a CC50 at 4 days in series [2] greater than 500 nM.
In the case of `Cc1nnc(-c2ccc3c(=O)n(-c4ccc(Cl)c5c(NS(C)(=O)=O)nn(C)c45)c([C@H](Cc4cc(F)cc(F)c4)NC(=O)Cn4nc(C(F)F)c5c4C(F)(F)[C@@H]4C[C@H]54)nc3c2)nc1C` (atropisomer, axis not shown; (P)) [Example 55, N—((S)-1-((3P)-3-(4-chloro-1-methyl-3-(methylsulfonamido)-1H-indazol-7-yl)-7-(5,6-dimethyl-1,2,4-triazin-3-yl)-4-oxo-3,4-dihydroquinazolin-2-yl)-2-(3,5-difluorophenyl)ethyl)-2-((3bS,4aR)-3-(difluoromethyl)-5,5-difluoro-3b,4,4a,5-tetrahydro-1H-cyclopropa[3,4]cyclopenta[1,2-c]pyrazol-1-yl)acetamide], the pEC50 in series [1] was 10.49. The compound also showed a CC50 at 4 days in series [2] greater than 500 nM.
`Cn1nc(NS(C)(=O)=O)c2c(Cl)ccc(-n3c([C@H](Cc4cc(F)cc(F)c4)NC(=O)Cn4nc(C(F)F)c5c4C(F)(F)[C@@H]4C[C@H]54)nc4cc(-c5nccc(C(F)F)n5)ccc4c3=O)c21` (atropisomer, axis not shown; (P)) [Example 56, N—((S)-1-((3P)-3-(4-chloro-1-methyl-3-(methylsulfonamido)-1H-indazol-7-yl)-7-(4-(difluoromethyl)pyrimidin-2-yl)-4-oxo-3,4-dihydroquinazolin-2-yl)-2-(3,5-difluorophenyl)ethyl)-2-((3bS,4aR)-3-(difluoromethyl)-5,5-difluoro-3b,4,4a,5-tetrahydro-1H-cyclopropa[3,4]cyclopenta[1,2-c]pyrazol-1-yl)acetamide]: the pEC50 in series [1] was 10.25. The half-maximal cytotoxic concentration (CC50) at 4 days in series [2] was greater than 500 nM.
